Measurements from patent US7517884B2 (Kalypsys Inc., priority 1998, dated 2009).

Experiments:
PPAR-delta = molecular target: T1, PPAR-delta (UniProt Q03181); test: PPAR-delta transactivation assay (GAL4 chimera, luciferase reporter) in CV-1 cells; type: cell-based, murine and human; conditions: GAL4-PPAR LBD chimera
T1 sequence (Q03181 1-441): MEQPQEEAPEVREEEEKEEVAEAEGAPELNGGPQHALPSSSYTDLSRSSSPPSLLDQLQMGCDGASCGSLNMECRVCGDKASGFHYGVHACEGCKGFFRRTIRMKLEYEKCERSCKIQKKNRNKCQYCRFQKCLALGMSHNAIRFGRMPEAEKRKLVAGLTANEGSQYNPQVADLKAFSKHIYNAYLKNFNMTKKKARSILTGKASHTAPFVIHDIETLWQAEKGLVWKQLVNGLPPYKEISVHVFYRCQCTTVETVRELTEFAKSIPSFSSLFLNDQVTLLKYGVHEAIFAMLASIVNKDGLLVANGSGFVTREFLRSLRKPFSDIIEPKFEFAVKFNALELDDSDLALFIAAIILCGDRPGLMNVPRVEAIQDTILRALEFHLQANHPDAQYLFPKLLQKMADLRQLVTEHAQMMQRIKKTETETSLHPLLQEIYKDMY
Outline: (§1)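 CV-1 cells transiently transfected with murine or human PPAR-alpha, -gamma or -delta ligand-binding domain fused to GAL4 DNA-binding domain plus a GAL4-site luciferase reporter. After replating in phenol-red-free DME with 5% delipidated calf serum, cells were exposed to compound 20-24 h; luciferase read-out gave EC50.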

PPAR-alpha = molecular target: T2, PPAR-alpha (UniProt Q07869); test: PPAR-alpha transactivation assay (GAL4 chimera, luciferase reporter) in CV-1 cells; type: cell-based, murine and human; conditions: GAL4-PPAR LBD chimera
T2 sequence (Q07869 1-468): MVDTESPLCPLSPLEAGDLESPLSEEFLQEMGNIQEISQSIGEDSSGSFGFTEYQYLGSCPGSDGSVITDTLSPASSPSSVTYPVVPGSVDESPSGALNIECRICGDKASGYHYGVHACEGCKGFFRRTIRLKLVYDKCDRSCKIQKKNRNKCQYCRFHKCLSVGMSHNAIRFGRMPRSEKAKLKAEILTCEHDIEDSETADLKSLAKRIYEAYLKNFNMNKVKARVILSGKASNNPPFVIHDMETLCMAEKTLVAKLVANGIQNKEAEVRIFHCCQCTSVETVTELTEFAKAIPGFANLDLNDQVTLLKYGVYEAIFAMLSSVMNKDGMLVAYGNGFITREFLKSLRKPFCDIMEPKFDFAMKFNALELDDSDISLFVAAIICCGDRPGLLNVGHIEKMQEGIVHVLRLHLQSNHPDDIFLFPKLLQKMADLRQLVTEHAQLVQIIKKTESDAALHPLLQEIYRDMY
Outline: as §1

PPAR-gamma = molecular target: T3, PPAR-gamma (UniProt P37231); test: PPAR-gamma transactivation assay (GAL4 chimera, luciferase reporter) in CV-1 cells; type: cell-based, murine and human; conditions: GAL4-PPAR LBD chimera
T3 sequence (P37231 1-505): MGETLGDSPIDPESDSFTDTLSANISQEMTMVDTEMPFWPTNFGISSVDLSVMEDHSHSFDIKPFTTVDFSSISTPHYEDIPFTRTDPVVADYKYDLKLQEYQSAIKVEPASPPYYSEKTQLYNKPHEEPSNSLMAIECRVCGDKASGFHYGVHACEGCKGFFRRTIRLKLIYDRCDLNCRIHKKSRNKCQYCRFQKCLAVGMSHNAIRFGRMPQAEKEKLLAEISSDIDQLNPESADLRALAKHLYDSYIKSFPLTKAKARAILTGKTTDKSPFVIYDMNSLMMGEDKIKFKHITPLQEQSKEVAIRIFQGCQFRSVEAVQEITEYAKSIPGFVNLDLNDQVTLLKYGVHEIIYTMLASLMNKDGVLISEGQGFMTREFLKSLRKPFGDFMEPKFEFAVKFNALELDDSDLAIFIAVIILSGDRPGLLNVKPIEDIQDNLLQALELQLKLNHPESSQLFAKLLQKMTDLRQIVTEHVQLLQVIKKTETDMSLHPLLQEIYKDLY
Outline: as §1

[1] = test system: Diet-Induced Obesity (DIO) in Mice; test: Model of Diet-Induced Obesity (DIO) in mice, dose ranging study; type: in vivo, C57B1/6j mice; conditions: HFD, 1.5 mg/kg BID
Text: Evaluation of Pharmacological Efficacy of a Compound of the Invention in a Model of Diet-Induced Obesity (DIO) in Mice
Metabolic syndrome in humans is characterized by abdominal obesity, high triglycerides, impaired fasting glucose and hyperinsulinemia. In the DIO model, mice are fed high fat diet (HFD, Research diet D12492, Research Diet, NJ) diet (58% lard) for the entire period of the study. Compared to normal chow (NC, Harlan-Tekland #8604, WI) fed animals the HF fed mice develop several features of metabolic syndrome such as, hypertriglyceridemia, hyperinsulinemia and mild hyperglycemia, as early as two weeks, on this diet. […] This model was used to evaluate the pharmacological effects of a compound of the invention selected from the group consisting of Examples 1-141 (referred to for the purposes of this study as “Compound (I)”) in mitigating several features of HFD induced metabolic syndrome in rodents.
C57B1/6j mice (n=5) were fed ad libitum with either the HFD (58% fat) or NC (5%) diet for 3 weeks prior to start of experiment, and throughout the course of the experiment (45 days). Starting on Day 1, mice were dosed BID with either Compound (I)+vehicle, vehicle alone, or GW501516, a known PPARδ modulator in clinical development by Glaxo-Wellcome, for the entire period of the study. Animals were the assessed for body weight gain, food intake, triglyceride (TG), insulin, and glucose levels under fasting and postprandial (PP) conditions. Animals were weighed twice weekly in the morning to determine body weight gain. Plasma or serum was separated from whole blood (Sarstedt) and TG levels were assayed with a TG kit (Thermo Electron Corporation, TX). Plasma insulin levels were assayed using the ultrasensitive mouse Insulin ELISA immunoassay (American Laboratory Products Company). Total cholesterol, HDLc and LDLc was measured to evaluate pharmacological efficacy at various time points during the study and serum transaminases were measured to evaluate any potential toxicity of the compound. These measurements were performed with a chemistry analyzer at Labcorp of America, NC.

EC50 (PPAR-delta) [µM]	EC50 (PPAR-alpha) [µM]	EC50 (PPAR-gamma) [µM]	Compound	% change in body weight (d0 vs d40) [1] [%]	Insulin [1] [ng/mL]	TG [1] [mg/dL]
< 5	> 100	> 100	C[C@@H]1CN(c2cc(F)c(Cl)c(F)c2)C[C@H](C)N1S(=O)(=O)c1cccc2c1CC(C(=O)O)C2 (stereo partly drawn) [Example 124, 4-(4-(4-Chloro-3,5-difluorophenyl)-cis-2,6-dimethylpiperazin-1-ylsulfonyl)-2,3-dihydro-1H-indene-2-carboxylic acid]	–	–	–
< 5	> 100	> 100	O=C(O)C1Cc2cccc(S(=O)(=O)N3C4CSCC3CN(c3ccc(OC(F)(F)F)cc3)C4)c2C1 (stereo not drawn) [Example 125, 4-(7-(4-(Trifluoromethoxy)phenyl)-3-thia-7,9-diazabicyclo|3.3.1|nonan-9-ylsulfonyl)-2,3-dihydro-1H-indene-2-carboxylic acid]	–	–	–
< 5	> 100	> 100	C[C@@H]1CN(c2ccc(Cl)cc2)C[C@H](C)N1S(=O)(=O)c1cccc2c1CC(C(=O)O)C2 (stereo partly drawn) [Example 126, 4-[4-(4-Chlorophenyl)-cis-2,6-dimethylpiperazin-1-ylsulfonyl]-2,3-dihydro-1H-indene-2-carboxylic acid]	–	–	–
< 5	> 100	> 100	C[C@@H]1CN(c2ccc(Cl)c(OC(F)(F)F)c2)C[C@H](C)N1S(=O)(=O)c1cccc2c1CC(C(=O)O)C2 (stereo partly drawn) [Example 131, 4-|4-(4-Chloro-3-trifluoromethoxyphenyl)-cis-2,6-dimethylpiperazine-1-ylsulfonyl|-2,3-dihydro-1H-indene-2-carboxylic acid]	–	–	–
< 5	> 100	> 100	C[C@@H]1CN(c2ccc(Cl)c(F)c2)C[C@H](C)N1S(=O)(=O)c1cccc2c1CC(C(=O)O)C2 (stereo partly drawn) [Example 132, 4-|4-(4-Chloro-3-fluorophenyl)-cis-2,6-dimethylpiperazin-1-ylsulfonyl|-2,3-dihydro-1H-indene-2-carboxylic acid]	–	–	–
< 5	> 100	> 100	COc1cc(N2C[C@@H](C)N(S(=O)(=O)c3cccc4c3CC(C(=O)O)C4)[C@@H](C)C2)ccc1Cl (stereo partly drawn) [Example 133, 4-|4-(4-Chloro-3-methoxyphenyl)-cis-2,6-dimethylpiperazine-1-ylsulfonyl|-2,3-dihydro-1H-indene-2-carboxylic acid]	–	–	–
< 5	> 100	> 100	C[C@@H]1CN(c2ccc(Cl)c(C(F)(F)F)c2)C[C@H](C)N1S(=O)(=O)c1cccc2c1CC(C(=O)O)C2 (stereo partly drawn) [Example 134]	–	–	–
< 5	> 100	> 100	Cc1cc(N2C[C@@H](C)N(S(=O)(=O)c3cccc4c3CC(C(=O)O)C4)[C@@H](C)C2)ccc1Cl (stereo partly drawn) [Example 135, 4-|4-(4-Chloro-3-methylphenyl)-cis-2,6-dimethylpiperazin-1-ylsulfonyl|-2,3-dihydro-1H-indene-2-carboxylic acid]	–	–	–
< 5	> 100	> 100	CCc1ccc(N2C[C@@H](C)N(S(=O)(=O)c3cccc4c3CC(C(=O)O)C4)[C@@H](C)C2)cc1 (stereo partly drawn) [Example 136, 4-|4-(4-Ethylphenyl)-cis-2,6-dimethylpiperazin-1-ylsulfonyl|-2,3-dihydro-1H-indene-2-carboxylic acid]	–	–	–
< 5	> 100	> 100	Cc1ccc(N2C[C@@H](C)N(S(=O)(=O)c3cccc4c3CC(C(=O)O)C4)[C@@H](C)C2)cc1C (stereo partly drawn) [Example 137, 4-|4-(3,4-Dimethylphenyl)-cis-2,6-dimethylpiperazin-1-ylsulfonyl|-2,3-dihydro-1H-indene-2-carboxylic acid]	–	–	–
–	–	–	Cc1cc(SCc2sc(-c3ccc(C(F)(F)F)cc3)nc2C)ccc1OCC(=O)O [GW516]	10.6	1.3 ± 0.3	268 ± 56
